Tested on: MV-4-11 cells
Experiment: Gene expression microarray analysis (Affymetrix PrimeView) and GSEA
Assay type: cell-based, human
Parameters: RFU PODN (11730768_x_at) / Fold change /veh PODN (11730768_x_at) / RFU LINC00158 (11744669_a_at) / Fold change /veh LINC00158 (11744669_a_at) / RFU DUSP10 (11751237_a_at) / Fold change /veh DUSP10 (11751237_a_at) / RFU ID3 (11757404_x_at) / Fold change /veh ID3 (11757404_x_at) / RFU PLEKHG5 (11737974_s_at) / Fold change /veh PLEKHG5 (11737974_s_at) / RFU LRRC4B (11730491_at) / Fold change /veh LRRC4B (11730491_at) / RFU GIMAP4 (11747438_a_at) / Fold change /veh GIMAP4 (11747438_a_at) / RFU KRT8 (11758183_x_at) / Fold change /veh KRT8 (11758183_x_at) / RFU CNN1 (11734310_a_at) / Fold change /veh CNN1 (11734310_a_at) / RFU VPS37D (11726825_at) / Fold change /veh VPS37D (11726825_at) / RFU C10orf10 (11716522_x_at) / Fold change /veh C10orf10 (11716522_x_at) / RFU KIR2DL2 /// KIR2DL4 /// KIR2DL5A /// KIR2DL5B /// KIR2DS1 /// KIR2DS2 /// KIR2DS3 /// KIR2DS4 /// KIR3DL3 /// KIR3DL3 /// KIR3DS1 (11738374_at) / Fold change /veh KIR2DL2 /// KIR2DL4 /// KIR2DL5A /// KIR2DL5B /// KIR2DS1 /// KIR2DS2 /// KIR2DS3 /// KIR2DS4 /// KIR3DL3 /// KIR3DL3 /// KIR3DS1 (11738374_at) / RFU C1QL1 (11718748_at) / Fold change /veh C1QL1 (11718748_at) / RFU TMPRSS4 (11747572_a_at) / Fold change /veh TMPRSS4 (11747572_a_at) / RFU HAMP (11756126_x_at) / Fold change /veh HAMP (11756126_x_at) / RFU RNFT2 (11725882_a_at) / Fold change /veh RNFT2 (11725882_a_at) / RFU NR4A2 (11747474_a_at) / Fold change /veh NR4A2 (11747474_a_at) / RFU ABCC12 (11746883_a_at) / Fold change /veh ABCC12 (11746883_a_at) / RFU TMEM136 (11760407_x_at) / Fold change /veh TMEM136 (11760407_x_at) / RFU CLDN22 /// WWC2 (11732394_at) / Fold change /veh CLDN22 /// WWC2 (11732394_at) / RFU HLA-DPB1 (11760878_x_at) / Fold change /veh HLA-DPB1 (11760878_x_at) / RFU SPINT1 (11716480_a_at) / Fold change /veh SPINT1 (11716480_a_at) / RFU GAP43 (11754022_s_at) / Fold change /veh GAP43 (11754022_s_at) / RFU A4GNT (11735810_at) / Fold change /veh A4GNT (11735810_at) / RFU PRB3 (11715151_x_at) / Fold change /veh PRB3 (11715151_x_at) / RFU TUBB4B (11761932_at) / Fold change /veh TUBB4B (11761932_at) / RFU CAPN14 (11732068_a_at) / Fold change /veh CAPN14 (11732068_a_at) / RFU TMCC2 (11721928_a_at) / Fold change /veh TMCC2 (11721928_a_at) / RFU IRGQ (11745062_a_at) / Fold change /veh IRGQ (11745062_a_at) / RFU FAM174B (11720279_a_at) / Fold change /veh FAM174B (11720279_a_at) / RFU TMPRSS4 (11748680_a_at) / Fold change /veh TMPRSS4 (11748680_a_at) / RFU FAM212B (11763350_a_at) / Fold change /veh FAM212B (11763350_a_at) / RFU PLEKHG5 (11743358_a_at) / Fold change /veh PLEKHG5 (11743358_a_at) / RFU ZSCAN30 (11745921_a_at) / Fold change /veh ZSCAN30 (11745921_a_at) / RFU CMKLR1 (11741424_a_at) / Fold change /veh CMKLR1 (11741424_a_at) / RFU LOC101060620 /// MAPK8IP1 (11723275_at) / Fold change /veh LOC101060620 /// MAPK8IP1 (11723275_at) / RFU SPTSSB (11747773_x_at) / Fold change /veh SPTSSB (11747773_x_at) / RFU PRSS12 (11739890_at) / Fold change /veh PRSS12 (11739890_at) / RFU BIN1 (11741810_x_at) / Fold change /veh BIN1 (11741810_x_at) / RFU WNT11 (11732464_a_at) / Fold change /veh WNT11 (11732464_a_at) / RFU C10orf10 (11716521_a_at) / Fold change /veh C10orf10 (11716521_a_at) / RFU C5orf56 (11738089_at) / Fold change /veh C5orf56 (11738089_at) / RFU CYB561 (11721691_x_at) / Fold change /veh CYB561 (11721691_x_at) / RFU ANKRD19P (11752326_a_at) / Fold change /veh ANKRD19P (11752326_a_at) / RFU OR2T12 /// OR2T33 /// OR2T8 (11738714_s_at) / Fold change /veh OR2T12 /// OR2T33 /// OR2T8 (11738714_s_at) / RFU VCAN (11748164_a_at) / Fold change /veh VCAN (11748164_a_at) / RFU JSRP1 (11732532_at) / Fold change /veh JSRP1 (11732532_at) / RFU KRTAP10-11 (11738290_x_at) / Fold change /veh KRTAP10-11 (11738290_x_at) / RFU MYO3A (11730013_a_at) / Fold change /veh MYO3A (11730013_a_at) / RFU EBF3 (11725865_a_at) / Fold change /veh EBF3 (11725865_a_at) / RFU CAMK2N1 (11719241_x_at) / Fold change /veh CAMK2N1 (11719241_x_at) / RFU C5orf56 (11738088_a_at) / Fold change /veh C5orf56 (11738088_a_at) / RFU OLFML3 (11715873_a_at) / Fold change /veh OLFML3 (11715873_a_at) / RFU LOC100653217 /// NTM (11731650_a_at) / Fold change /veh LOC100653217 /// NTM (11731650_a_at) / RFU MAPK11 (11762145_a_at) / Fold change /veh MAPK11 (11762145_a_at) / RFU FIZ1 (11724087_x_at) / Fold change /veh FIZ1 (11724087_x_at) / RFU OASL (11726364_x_at) / Fold change /veh OASL (11726364_x_at) / RFU SOX15 (11748057_x_at) / Fold change /veh SOX15 (11748057_x_at) / RFU CD79A (11719716_a_at) / Fold change /veh CD79A (11719716_a_at) / RFU HIST1H1D (11736915_at) / Fold change /veh HIST1H1D (11736915_at) / RFU CASKIN2 (11723855_a_at) / Fold change /veh CASKIN2 (11723855_a_at) / RFU LOC730098 (11760151_x_at) / Fold change /veh LOC730098 (11760151_x_at) / RFU OR4N2 (11742367_at) / Fold change /veh OR4N2 (11742367_at) / RFU PRRT2 (11749266_a_at) / Fold change /veh PRRT2 (11749266_a_at) / RFU SNX32 (11753110_a_at) / Fold change /veh SNX32 (11753110_a_at) / RFU CDHR5 (11726645_a_at) / Fold change /veh CDHR5 (11726645_a_at) / RFU RCAN1 (11760418_a_at) / Fold change /veh RCAN1 (11760418_a_at) / RFU FAM167A (11723789_a_at) / Fold change /veh FAM167A (11723789_a_at) / RFU FAM26E (11764081_at) / Fold change /veh FAM26E (11764081_at) / RFU ISYNA1 (11749810_s_at) / Fold change /veh ISYNA1 (11749810_s_at) / RFU ACY1 (11761880_at) / Fold change /veh ACY1 (11761880_at) / RFU 11764098_at / Fold change /veh 11764098_at / RFU SAMD14 (11745864_x_at) / Fold change /veh SAMD14 (11745864_x_at) / RFU NPB (11741838_a_at) / Fold change /veh NPB (11741838_a_at) / RFU TMPRSS6 (11731388_a_at) / Fold change /veh TMPRSS6 (11731388_a_at) / RFU KRTAP10-2 (11738614_at) / Fold change /veh KRTAP10-2 (11738614_at) / RFU ARHGAP8 /// PRR5-ARHGAP8 (11727945_x_at) / Fold change /veh ARHGAP8 /// PRR5-ARHGAP8 (11727945_x_at) / RFU KRTAP5-7 /// NADSYN1 (11734609_at) / Fold change /veh KRTAP5-7 /// NADSYN1 (11734609_at) / RFU RASL12 (11751679_a_at) / Fold change /veh RASL12 (11751679_a_at) / RFU CDKN2B (11736163_a_at) / Fold change /veh CDKN2B (11736163_a_at) / RFU PRF1 (11729649_at) / Fold change /veh PRF1 (11729649_at) / RFU, ZNF638 /// ZNF638-IT1 / Fold change vs veh, ZNF638 /// ZNF638-IT1 / RFU, PANK3 / Fold change vs veh, PANK3 / RFU, SH3YL1 / Fold change vs veh, SH3YL1 / RFU, ZEB2 / Fold change vs veh, ZEB2 / RFU, NRIP1 / Fold change vs veh, NRIP1 / RFU, PTTG1IP / Fold change vs veh, PTTG1IP / RFU, CAPN2 / Fold change vs veh, CAPN2 / RFU, MED14 / Fold change vs veh, MED14 / RFU, SNORA58 / Fold change vs veh, SNORA58 / RFU, C1orf63 / Fold change vs veh, C1orf63 / RFU, LRRFIP1 / Fold change vs veh, LRRFIP1 / RFU, NDUFAF7 / Fold change vs veh, NDUFAF7 / RFU, SLC12A2 / Fold change vs veh, SLC12A2 / RFU, IBTK / Fold change vs veh, IBTK / RFU, ESF1 / Fold change vs veh, ESF1 / Fold change vs veh, TMEM50B / RFU, TAOK1 / Fold change vs veh, TAOK1 / RFU, ACBD3 / Fold change vs veh, ACBD3 / RFU, TMA16 / Fold change vs veh, TMA16 / RFU, RWDD3 / Fold change vs veh, RWDD3 / RFU, BCAT1 / Fold change vs veh, BCAT1 / RFU, EDEM3 / Fold change vs veh, EDEM3 / RFU, TMEM33 / Fold change vs veh, TMEM33 / RFU, WDR75 / Fold change vs veh, WDR75 / RFU, AHCTF1 / Fold change vs veh, AHCTF1 / RFU, TFRC / Fold change vs veh, TFRC / RFU, ZDHHC17 / Fold change vs veh, ZDHHC17 / RFU, NOM1 / Fold change vs veh, NOM1 / RFU, ARL8B / Fold change vs veh, ARL8B / RFU, ZBTB11 / Fold change vs veh, ZBTB11 / RFU, TAMM41 / Fold change vs veh, TAMM41 / RFU, KIAA1704 /// LOC100996395 / Fold change vs veh, KIAA1704 /// LOC100996395 / RFU, ING1 / Fold change vs veh, ING1 / RFU, TRMT61B / Fold change vs veh, TRMT61B / RFU, FUBP3 / Fold change vs veh, FUBP3 / RFU, TP53 / Fold change vs veh, TP53 / RFU, TNKS2 / Fold change vs veh, TNKS2 / RFU, ZFP14 / Fold change vs veh, ZFP14 / RFU, ACTR2 / Fold change vs veh, ACTR2 / RFU, PPP3R1 / Fold change vs veh, PPP3R1 / RFU, PIK3R1 / Fold change vs veh, PIK3R1 / RFU, HNRNPA1 / Fold change vs veh, HNRNPA1 / RFU, RNF170 / Fold change vs veh, RNF170 / RFU, ZNF28 / Fold change vs veh, ZNF28 / RFU, RNGTT / Fold change vs veh, RNGTT / RFU, OGT / Fold change vs veh, OGT / RFU, BRD1 / Fold change vs veh, BRD1 / RFU, MARS / Fold change vs veh, MARS / RFU, ZNF655 / Fold change vs veh, ZNF655 / RFU, FAHD1 / Fold change vs veh, FAHD1 / RFU, BDP1 / Fold change vs veh, BDP1 / RFU, LRRCC1 / Fold change vs veh, LRRCC1 / RFU, ARID1A / Fold change vs veh, ARID1A / RFU, ZNF146 / Fold change vs veh, ZNF146 / RFU, ZNF330 / Fold change vs veh, ZNF330 / RFU, GPN3 / Fold change vs veh, GPN3 / RFU, C9orf123 / Fold change vs veh, C9orf123 / RFU, N4BP2L2 / Fold change vs veh, N4BP2L2 / RFU, ARFIP1 / Fold change vs veh, ARFIP1 / RFU, FAM179B / Fold change vs veh, FAM179B / RFU, BCL10 / Fold change vs veh, BCL10 / RFU, UHRF1BP1L / Fold change vs veh, UHRF1BP1L / RFU, BET1 / Fold change vs veh, BET1 / RFU, CNOT2 / Fold change vs veh, CNOT2 / RFU, ZNF268 / Fold change vs veh, ZNF268 / Fold change vs veh, ZNF507 / RFU, DGCR2 / Fold change vs veh, DGCR2 / RFU, WDSUB1 / Fold change vs veh, WDSUB1 / Fold change vs veh, HSP90B1 /// MIR3652 / RFU, ADSS / Fold change vs veh, ADSS / RFU, GK / Fold change vs veh, GK / RFU, ZNF148 / Fold change vs veh, ZNF148 / RFU, TAF9 / Fold change vs veh, TAF9 / RFU, SLC1A5 / Fold change vs veh, SLC1A5 / RFU, SLMO2 / Fold change vs veh, SLMO2 / RFU, ABCC4 / Fold change vs veh, ABCC4 / RFU, LOC101060439 /// RAP1B / Fold change vs veh, LOC101060439 /// RAP1B / RFU, RFX7 / Fold change vs veh, RFX7 / RFU, GTPBP10 / Fold change vs veh, GTPBP10 / RFU, CNEP1R1 / Fold change vs veh, CNEP1R1 / RFU, BIVM-ERCC5 /// ERCC5 / Fold change vs veh, BIVM-ERCC5 /// ERCC5 / RFU, ILF3 / Fold change vs veh, ILF3 / RFU 11762660_at / Fold change /veh 11762660_at / RFU VCAN (11757783_s_at) / Fold change /veh VCAN (11757783_s_at) / RFU DDX43 (11728927_at) / Fold change /veh DDX43 (11728927_at) / RFU KRT8 (11758188_x_at) / Fold change /veh KRT8 (11758188_x_at) / RFU NKD1 (11759106_at) / Fold change /veh NKD1 (11759106_at) / RFU SRD5A1 (11742802_a_at) / Fold change /veh SRD5A1 (11742802_a_at) / RFU TPSAB1 /// TPSB2 (11721975_s_at) / Fold change /veh TPSAB1 /// TPSB2 (11721975_s_at) / RFU GSTM3 (11746129_a_at) / Fold change /veh GSTM3 (11746129_a_at) / RFU IL23R (11737362_x_at) / Fold change /veh IL23R (11737362_x_at) / RFU TMEM51 (11727254_a_at) / Fold change /veh TMEM51 (11727254_a_at) / RFU PIWIL2 (11732686_x_at) / Fold change /veh PIWIL2 (11732686_x_at) / RFU ORM1 (11744905_x_at) / Fold change /veh ORM1 (11744905_x_at) / RFU CCDC152 (11743942_at) / Fold change /veh CCDC152 (11743942_at) / RFU ECM1 (11717891_a_at) / Fold change /veh ECM1 (11717891_a_at) / RFU IL23R (11748794_a_at) / Fold change /veh IL23R (11748794_a_at) / RFU TNFAIP8L3 (11732012_x_at) / Fold change /veh TNFAIP8L3 (11732012_x_at) / RFU MBOAT4 (11741988_at) / Fold change /veh MBOAT4 (11741988_at) / RFU 11764193_at / Fold change /veh 11764193_at / RFU TMEM53 (11763286_at) / Fold change /veh TMEM53 (11763286_at) / RFU MAGEB2 (11727129_at) / Fold change /veh MAGEB2 (11727129_at) / RFU TMEM200A (11744735_a_at) / Fold change /veh TMEM200A (11744735_a_at) / RFU CCDC152 (11751479_a_at) / Fold change /veh CCDC152 (11751479_a_at) / RFU FAM211A (11726209_a_at) / Fold change /veh FAM211A (11726209_a_at) / RFU RGS16 (11746705_a_at) / Fold change /veh RGS16 (11746705_a_at) / RFU VCAN (11755009_s_at) / Fold change /veh VCAN (11755009_s_at) / RFU RHOB (11743442_s_at) / Fold change /veh RHOB (11743442_s_at) / RFU RGS16 (11720943_a_at) / Fold change /veh RGS16 (11720943_a_at) / RFU RGS16 (11720944_at) / Fold change /veh RGS16 (11720944_at) / RFU, VPS4B / Fold change vs veh, VPS4B / RFU, CREB1 / Fold change vs veh, CREB1 / RFU, DNAJC13 / Fold change vs veh, DNAJC13 / RFU, GNAQ / Fold change vs veh, GNAQ / RFU, CDK5R1 / Fold change vs veh, CDK5R1 / RFU, ZRANB3 / Fold change vs veh, ZRANB3 / RFU, CUL4A / Fold change vs veh, CUL4A / RFU, CCNY / Fold change vs veh, CCNY / RFU, UFL1 / Fold change vs veh, UFL1 / RFU, COG3 / Fold change vs veh, COG3 / RFU, DIAPH2 / Fold change vs veh, DIAPH2 / RFU, SKA2 / Fold change vs veh, SKA2 / RFU, AFF3 / Fold change vs veh, AFF3 / RFU, LMF1 / Fold change vs veh, LMF1 / RFU, IPO11 / Fold change vs veh, IPO11 / RFU, DFFB / Fold change vs veh, DFFB / RFU, FOXP1 / Fold change vs veh, FOXP1 / RFU, CARD8 / Fold change vs veh, CARD8 / RFU, STRN3 / Fold change vs veh, STRN3 / RFU, ADK / Fold change vs veh, ADK / RFU, RASSF2 / Fold change vs veh, RASSF2 / RFU, WIPF1 / Fold change vs veh, WIPF1 / RFU, LARP1B / Fold change vs veh, LARP1B / RFU, RASA1 / Fold change vs veh, RASA1 / RFU, RB1 / Fold change vs veh, RB1 / RFU, PPFIA1 / Fold change vs veh, PPFIA1 / RFU, MAT2A / Fold change vs veh, MAT2A / RFU, CCT5 / Fold change vs veh, CCT5 / RFU, WDR92 / Fold change vs veh, WDR92 / RFU, CUX1 / Fold change vs veh, CUX1 / RFU, TTC7A / Fold change vs veh, TTC7A / RFU, TMEM135 / Fold change vs veh, TMEM135 / RFU, DEPTOR / Fold change vs veh, DEPTOR / RFU, CPM / Fold change vs veh, CPM / RFU, DNAJB6 / Fold change vs veh, DNAJB6 / RFU, CACNA2D3 / Fold change vs veh, CACNA2D3 / RFU, DTX4 / Fold change vs veh, DTX4 / RFU, TFCP2 / Fold change vs veh, TFCP2 / RFU, GMCL1 /// GMCL1P1 / Fold change vs veh, GMCL1 /// GMCL1P1 / RFU, AEBP2 / Fold change vs veh, AEBP2 / RFU, SNHG1 /// SNORD22 /// SNORD25 /// SNORD26 /// SNORD27 /// SNORD28 /// SNORD29 /// SNORD31 / Fold change vs veh, SNHG1 /// SNORD22 /// SNORD25 /// SNORD26 /// SNORD27 /// SNORD28 /// SNORD29 /// SNORD31 / Fold change (Aza/veh), C12orf56 (ProbeSet 11735607_a_at) / Fold change (ACY-1035/veh), C12orf56 (ProbeSet 11735607_a_at) / Fold change (Aza/veh), FGFR1OP (ProbeSet 11751329_s_at) / Fold change (ACY-1035/veh), FGFR1OP (ProbeSet 11751329_s_at) / Fold change (Aza/veh), VPS36 (ProbeSet 11739960_a_at) / Fold change (ACY-1035/veh), VPS36 (ProbeSet 11739960_a_at) / RFU SYPL1 (11715823_x_at) / Fold change /veh SYPL1 (11715823_x_at) / RFU IGFBP7 (11715501_s_at) / Fold change /veh IGFBP7 (11715501_s_at) / RFU REEP3 (11722064_at) / Fold change /veh REEP3 (11722064_at) / RFU IGLL1 (11728026_x_at) / Fold change /veh IGLL1 (11728026_x_at): dose or concentration left out as unconfirmed
Conditions: MV-4-11 cells, 48 hours

## Nc1ccc(-c2cccs2)cc1NC(=O)c1ccc2c(c1)cc(C1CC1)n2CCN1CCOCC1 [ACY-1035]
  RFU TMPRSS6 (11731388_a_at): 73.78 RFU

— article PMC5218480 (PLoS ONE, 2017)
